# Where two headings read alike, the source gives them in different places.
# Molecular target: T1, human 5-HT3 receptor (Homo sapiens, UniProt P46098)
# T1 sequence (P46098 24-478): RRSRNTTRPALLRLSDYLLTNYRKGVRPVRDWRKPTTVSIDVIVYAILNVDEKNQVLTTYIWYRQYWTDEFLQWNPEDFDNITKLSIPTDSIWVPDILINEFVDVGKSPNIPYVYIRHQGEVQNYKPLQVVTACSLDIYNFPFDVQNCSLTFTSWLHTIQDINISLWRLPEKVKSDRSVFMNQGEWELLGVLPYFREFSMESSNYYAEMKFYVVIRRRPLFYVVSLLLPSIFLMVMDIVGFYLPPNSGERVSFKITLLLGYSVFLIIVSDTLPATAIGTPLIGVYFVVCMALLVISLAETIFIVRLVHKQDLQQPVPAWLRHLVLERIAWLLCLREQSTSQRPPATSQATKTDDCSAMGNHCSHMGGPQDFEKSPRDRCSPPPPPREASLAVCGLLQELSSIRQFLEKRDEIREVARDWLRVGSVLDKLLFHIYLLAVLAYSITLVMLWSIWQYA
# Assay: Affinity for human 5-HT3 receptor by scintillation proximity assay (SPA), [9-methyl-3H]BRL-43694 competition
# Assay type: binding
# Method: The relative affinity of the compound to human 5-HT3 receptor was detected by scintillation proximity assay (SPA). The specific procedures were as follows: the test compound was diluted to 10 mM with 100% DMSO, and then subjected to 10× gradient dilution with 100% DMSO in a 96-well plate, and each of the resultant solution was further diluted with the test buffer to provide 4× test concentration. The sample, 10 nM of [9-methyl-3H]BRL-43694, 3 μg of human 5-HT3 receptor membrane, and 0.5 mg/mL of SPA beads were incubated in 50 mM Tris-HCl (pH 7.5, 3 mM MgCl2, 1 mM EDTA and 10% DMSO), with a final volume of 0.2 mL. By successively adding 50 μL of competitive test compound or buffer, SPA beads, radioactive ligands and 5-HT3 receptor membrane, the binding reaction was performed in the wells of PicoPlates-96 well plate. After it was stirred and incubated overnight at room temperature, the plate was centrifuged at 1500 rpm for 15 min, and then incubated in dark for 30 min. Finally, the 5-min radioactivity was read in the TopCount microplate counter. Total binding control only contained the above buffer used to dilute the test compound, while the nonspecific binding was determined at the presence of 30 μM MDL-72222, and thus the specific binding was deduced by the total binding control minus the nonspecific binding. All experiments were carried out by ten concentrations of competitive ligand, and each group was established multiple holes. ALB-137391 was used as positive control.
# ALB-137391 was a 5-HT3 receptor partial agonist, and provided by AMRI company, USA, with a production batch number of 1631-B-R0-01-43-01. The structure was as follows:
# The half inhibitory concentration (IC50) was determined from the specific binding data by using XLfit4.1 curve fitting software of IDBS Ltd.
# Inhibition constant Ki=IC50/(1+(L/KD)), wherein L=the concentration of radioactive ligands in the test, KD=the affinity of radioactive ligands to receptors.
Compound,IC50 [nM],Ki [nM],affinity to human 5-HT3 receptor (in words) (summary of Table 1),"IC50 (human 5-HT3 receptor membrane, 10 nM [9-methyl-3H]BRL-43694, SPA, overnight at room temperature, read-out: IC50) [nM]",affinity and inhibitory effect on 5-HT3 receptor compared with positive control ALB-137391 (summary of Table 1)
"O=C1c2cccc3[nH]nc(c23)CCN1[C@@H]1CN2CCC1CC2 [ALB-137391, reference compound]",4.48,0.81,–,–,–
"O=C1c2ccc(Br)c3[nH]nc(c23)CCN1[C@@H]1CN2CCC1CC2 [Compound 10, (S)-3-bromo-7-(quinuclidin-3-yl)-2,7,8,9-tetrahydro-6H-azepino[5,4,3-cd]indazole-6-one]",34.2,6.2,strong affinity,–,–
"N#Cc1ccc2c3c(n[nH]c13)CCN([C@@H]1CN3CCC1CC3)C2=O [Compound 11, (S)-3-cyano-7-(quinuclidin-3-yl)-2,7,8,9-tetrahydro-6H-azepino[5,4,3-cd]indazole-6-one]",–,65.1,–,359,–
"O=C1c2ccc(O)c3[nH]nc(c23)CCN1[C@@H]1CN2CCC1CC2 [Compound 12, (S)-3-hydroxyl-7-(quinuclidin-3-yl)-2,7,8,9-tetrahydro-6H-azepino[5,4,3-cd]indazole-6-one]",14,2.53,strong affinity,–,–
"[2H]c1ccc2c3c(n[nH]c13)CCN([C@@H]1CN3CCC1CC3)C2=O [Compound 13, (S)-3-deutero-7-(quinuclidin-3-yl)-2,7,8,9-tetrahydro-6H-azepino[5,4,3-cd]indazole-6-one]",3.31,0.6,strong affinity,–,even better than that of positive control ALB-137391
"O=C1c2ccc(F)c3[nH]nc(c23)CCN1[C@@H]1CN2CCC1CC2 [Compound 14, (S)-3-fluoro-7-(quinuclidin-3-yl)-2,7,8,9-tetrahydro-6H-azepino[5,4,3-cd]indazole-6-one]",74,13.4,strong affinity,–,–
"O=C1c2ccc(Cl)c3[nH]nc(c23)CCN1[C@@H]1CN2CCC1CC2 [Compound 15, (S)-3-chloro-7-(quinuclidin-3-yl)-2,7,8,9-tetrahydro-6H-azepino[5,4,3-cd]indazole-6-one]",47.1,8.53,strong affinity,–,–
